Results from article PMC9916925, “Copper (II) Species with Improved Anti-Melanoma and Antibacterial Activity by Inclusion in β-Cyclodextrin” (International Journal of Molecular Sciences, 2023).
Values after ≈ are worked out from the molar mass of the structure shown. Read-outs that look alike come from different tables or passages of the source.

How the values were obtained:
[1] = assay type: physicochemical
From the text: Compound (1) follows a linear profile described in the literature as an AL type, according to Higuchi and Connors. This behavior corresponds to a molar ratio of 1:1 between (1a) and β-CD, similar to that obtained using Job’s method. […] This value confirms that the equilibrium between (1) and β-CD shifts to the product, indicating a high tendency of (1) to enter the cavity of β-CD together with good stability of the (1a)@β-CD complex. […] Higuchi described this model as being AP, meaning a positive deviation from the linearity, corresponding to a 1:2 molar ratio between (2) and β-CD, in very good agreement with results obtained by Job’s method. This type of stoichiometry literature indicates a possibility of evaluating the stability constant starting from the equation of a quadratic model. Even if this is not a perfect model and the value calculated is affected by an error ~30%, reliable information about the stability of the (2a)@β -CD complex could be obtained. The model ensures the calculation of K1:1 and K1:2. The obtained values were 20.44 and 6 M^–1.
The method settled for phase-solubility studies was adapted from a previous paper. First, calibration curves for (1) and (2) were obtained. For this purpose, successive dilutions from the stock solution were performed, spectra were recorded and absorbance reeded 312 nm (1) and 272 nm (2). The plot of absorbance versus concentration gives two straight lines for both (1) and (2) complexes: y = 0.5111x − 0.0323 (R^2 = 0.9996) and y = 18.792x − 0.0323 (R^2 = 0.9996), respectively. Second, water and β-CD 20 mM were added to six samples containing an excess of complex (50 mg) that had the same volume but increasing β-CD concentration. In all experiments, the final volume was 5 mL. The samples were shaken for 1 h, filtered using 0.25 µm PTFE, and the solution was diluted to 1:25 mL before the spectra were recorded. The concentration of the complex in each solution was calculated using a calibration curve described above. In the end, the phase solubility diagrams were obtained by plotting the concentration of the complex versus the concentration of β-CD. The stability constants were calculated from the phase-solubility diagram as follows: (i) Kc = slope/[So × (1 − slope)], where So is the complex’s solubility in the absence of β-CD, for a 1:1 mole ratio, and (ii) STotal = S0 + K1:1[β-CD] + K1:1K1:2[β-CD]^2, where K1:1 and K1:2 are constants for 1:1 and 1:2 host–guest complexes and STotal is the total solubility of complex, for a 1:2 stoichiometry.

L929 fibroblasts [2] = test system: L929 fibroblasts; set-up: method as in PMID 34833864; conditions: L929, time not stated; ref [25]; cited from earlier work
[3] = test system: Escherichia coli ATCC 25922; set-up: method as in PMID 34833864; conditions: E. coli, planktonic cells; ref [25]; cited from earlier work
B16 melanoma cells = test system: B16 melanoma cells; set-up: method as in PMID 34833864; conditions: ref [25], cited from earlier work
[4] = set-up: method as in PMID 34833864; conditions: ref [25]; cited from earlier work
[5] = test system: Staphylococcus aureus ATCC 25923; set-up: method as in PMID 34833864; conditions: S. aureus 25923, planktonic cells; ref [25]; cited from earlier work
biofilm-embedded cells = assay: Crystal-violet microtiter anti-biofilm assay (MBEC); assay type: cell-based
Experimental: (§1) The antibacterial activity of the inclusion complexes was evaluated on the Gram-negative Escherichia coli ATCC 25922 and Gram-positive Staphylococcus aureus ATCC 25923 reference bacterial strains. The antibacterial activity of the β-CD, precursor complexes, and inclusion complexes was evaluated against planktonic and biofilm-embedded cells to obtain the minimum inhibitory (MIC) and minimum biofilm eradication (MBEC) concentrations, respectively. The antibacterial activity assays were carried out on the Gram-negative E. coli ATCC 25922 and the Gram-positive S. aureus ATCC 25923 reference strains. The antimicrobial activity of the β-CD inclusion complexes versus the β-CD and Cu(II) complexes against planktonic bacterial cells was assessed using the microdilution assay, allowing MIC determination. Anti-biofilm activity was evaluated using the crystal-violet microtiter to determine the MBEC [25]. All experiments were performed in triplicate. In both assays, serial binary concentrations ranging from 8.81 to 0.013 mM were used.

L929 fibroblasts [6] = assay: MTT cellular viability assay, L929 fibroblasts; assay type: cell-based, mouse; conditions: L929, 24 or 48 h, concentrations up to 25 µg/mL
Experimental: Mouse fibroblast cell line L929 (CCL-1, ATCC, USA) and mouse melanoma cell B16 (ATCC CRL-6475, USA) were grown in DMEM (Dulbecco’s Modified Eagle Medium) supplemented with 2 mM L-Glutamine, 10% fetal calf serum (FCS), 100 units/mL of penicillin, and 100 µg/mL of streptomycin. They were kept at 37 °C in a humidified incubator under an atmosphere containing 5% CO2. All cell-cultivation media and reagents were purchased from Biochrom AG (Berlin, Germany) and Sigma-Aldrich (Darmstadt, Germany).
To test cellular viability, we used the MTT assay (3-(4,5-dimethylthiazol-2-yl)-2,5-diphenyltetrazolium bromide) colorimetric assay as previously described. Briefly, L929 and B16 cells were seeded in 96-well plates at a density of 5000 cells/well and grown in the culture medium for 24 h. […] The absorbance of the samples was recorded at λ = 570 nm using a plate reader (Mithras 940, Berthold, Bad Wildbad, Germany). The data were corrected for background absorbance, and the viability was calculated using the following formula:% viable cells = [(A570 of treated cells)/(A570 of untreated cells)] × 100 (%)
Half-maximal inhibitory concentration (IC50) was determined by fitting the data with a sigmoidal logistic function using Origin 8.1 (Microcal Inc., Northampton, MA, USA) software.

B16 cells = assay: Cell cycle analysis by flow cytometry, B16; assay type: cell-based, mouse; conditions: B16, 24 h, irrespective of the tested concentration (1.56 and/or 6.25 µg/mL)
Experimental: (§2) A flow cytometry analysis was used to check the possible influence of the tested compounds on the cell cycle of both cellular lines L929 and B16. Before treatment, 25,000 cells per well were seeded in 24-well plates and treated with 2 concentrations of the compounds (1.56 and 6.25 µg/mL) for 24 h. After treatment, cells were detached, washed with cold PBS, and then resuspended in cold PBS mixed with 100% ethanol and kept at −20 °C for at least 24 h for fixation. The following day, the cells were stained using a 0.1% Triton-X in PBS containing 0.2 mg/mL RNAase and 20 µg/mL propidium iodide. The samples were incubated for 30 min at 37 °C in the dark. After incubation with the staining solution, the cells were washed with PBS and resuspended in 100 µL PBS. The cell cycle measurement was made using CytoFLEX (Beckman Coulter, Brea, CA, USA) by recording 30,000 events/sample. All experiments were made in triplicate, each having at least 2 wells per condition. The data was evaluated using the CytoFLEX software.

L929 cells = assay: Cell cycle analysis by flow cytometry, L929; assay type: cell-based, mouse; conditions: L929, 24 h, 1.56 and/or 6.25 µg/mL
Experimental: as §2

[7] = test system: Escherichia coli ATCC 25922; assay: Microdilution MIC assay, planktonic E. coli; assay type: cell-based; conditions: this paper
Experimental: as §1

[8] = test system: Staphylococcus aureus ATCC 25923; assay: Microdilution MIC assay, planktonic S. aureus; assay type: cell-based; conditions: S. aureus 25923, planktonic cells, this paper
Experimental: as §1

## [Cu(bipy)(dmtp)2(OH2)](ClO4)2@β-CD [(1a)@β-CD]
[1]
  Kc (stability constant, 1:1): 250 M^–1

## [Cu(phen)(dmtp)2(OH2)](ClO4)2·dmtp [(2)]
L929 fibroblasts [2]
  IC50: 15 µM
  IC50 L929: 13.61 µg/mL
[3]
  MIC: 0.34 mM
B16 melanoma cells; B16, 24 h
  IC50 against B16 cells 24 h: 6.88 µg/mL
B16 melanoma cells; B16, 24 h, read-out: IC50 against B16 cells 24 h
  IC50: 7.6 µM
B16 melanoma cells; B16, 48 h
  IC50 against B16 cells 48 h: 4.15 µg/mL
B16 melanoma cells; B16, 48 h, read-out: IC50 against B16 cells 48 h
  IC50: 4.58 µM
[4]
  scavenging of OH· radicals: not observed
[1]
  solubilization in water in the presence of β-CD: solubilized in water
[5]
  MIC: 0.04 mM
biofilm-embedded cells
  antibiofilm activity: exhibit antibiofilm activity

## [Cu(phen)(dmtp)2(OH2)](ClO4)2@β-CD [(2a)@β-CD]
[1]
  K1:1 (stability constant): 20.44 M^–1
  K1:2 (stability constant): 6 M^–1

## OC[C@H]1O[C@@H]2O[C@H]3[C@H](O)[C@@H](O)[C@@H](O[C@H]4[C@H](O)[C@@H](O)[C@@H](O[C@H]5[C@H](O)[C@@H](O)[C@@H](O[C@H]6[C@H](O)[C@@H](O)[C@@H](O[C@H]7[C@H](O)[C@@H](O)[C@@H](O[C@H]8[C@H](O)[C@@H](O)[C@@H](O[C@H]1[C@H](O)[C@H]2O)O[C@@H]8CO)O[C@@H]7CO)O[C@@H]6CO)O[C@@H]5CO)O[C@@H]4CO)O[C@@H]3CO [β-CD, β-cyclodextrin]
L929 fibroblasts [6]
  effect on viability of normal fibroblast cells: did not affect the viability
B16 cells
  change of number of cells in cell cycle phases: did not significantly alter
L929 cells
  change of number of cells in either cell cycle phase: did not significantly alter
[7]; Escherichia coli, ATCC25922, planktonic cells, read-out: MIC
  MIC: 8.81 mM (≈ 10000 µg/mL)
[7]; planktonic cells
  MIC: no activity
[8]
  MIC: no activity
[8]; Staphylococcus aureus, ATCC25923, read-out: MIC
  MIC: 8.81 mM (≈ 10000 µg/mL)

## [Cu(bipy)(dmtp)2(OH2)](ClO4)2·dmtp [(1)]
[3]
  MIC: 0.71 mM
B16 melanoma cells; B16, previous study
  IC50 against B16 cells: no IC50 could be calculated
[1]
  solubilization in water in the presence of β-CD: solubilized in water
[5]
  MIC: 0.18 mM
biofilm-embedded cells
  antibiofilm activity: exhibit antibiofilm activity
